Data set [1] concerns the target Fms kinase (Homo sapiens (Human), UniProt P07333). The data set is described as follows: Fms kinase biochemical activity assay (AlphaScreen, biotin-(E4Y)10 phosphorylation). Conditions: read-out: Biochemical activity (IC50 μM) Fms. Here is the method:
In one assay the biochemical activity IC50 values are determined with respect to inhibition of Fms kinase activity, where inhibition of phosphorylation of a peptide substrate is measured as a function of compound concentration. Compounds to be tested, dissolved in DMSO (1 μL), are added to a white 384-well plate (Costar #3705). Working stocks of Fms kinase (Invitrogen #PV3249), biotin-(E4Y)10 substrate (Upstate Biotech, Cat#12-440), and ATP (Sigma, Cat#A-3377) are prepared in 25 mM Hepes pH 7.5, 0.5 mM MgCl2, 2 mM MnCl2, 2 mM DTT, 0.01% BSA, and 0.01% Tween-20. All components are added to the 384-well plate for a final concentration of 1 ng/well Fms, 30 nM biotin-(E4Y)10 (Upstate Biotechnology) and 100 μM ATP in a volume of 20 μL. Each sample is at 5% DMSO. The plate is then incubated for 20 minutes at 30° C. Just before use, working stocks of donor and acceptor beads from the AlphaScreen PY20 Detection Kit (PerkinElmer, Cat#676601M) are prepared in 25 mM Hepes pH 7.5, pH 7.4, 100 mM EDTA, 0.01% BSA. To stop the reaction, the plate is uncovered in the dark and 5 μL of Donor Beads solution (Streptavidin beads) is added to each well. The plate is incubated at room temperature for 20 minutes. Five microliters of Acceptor Beads solution (PY20 coated beads) are then added to each well. The final concentration of each bead is 10 μg/mL. The plates are incubated at room temperature for 60 minutes. Fluorescence signal is recorded on the Envision reader. […] The signal vs. compound concentration is used to determine the IC50.

The target in data set [2] is BCR-FMS/BaF3 cells (Homo sapiens, UniProt P07333). Description: BCR-FMS/BaF3 cell proliferation assay (ATPlite). The format is cell-based. Here is the method:
Compounds are assessed in a variety of cell based assays. For example BCR-FMS/BaF3, BCR-KIT/BaF3, M-NFS-60, M-07e, and BAC1.2F5 cell proliferation assays are used to assess inhibitory activity of Fms or Kit and MV-4-11 cell proliferation assay is used to assess inhibitory activity in Flt-3. […] On day 1, cells are counted, then centrifuged in a conical tube for 5 minutes at 1000 rpm. The supernatant is removed and cells are re-suspended as follows: • BCR-FMS/BaF3 and BCR-KIT/BaF3: resuspend in growth media+1 mg/mL G418 (without WEHI/IL-3) to 2×10^5 cells/mL. • M-NFS-60: resuspend in growth media +62 ng/mL murine M-CSF to 5×10^5 cells/mL. • M-07e: resuspend in growth media +200 ng/mL human SCF to 5×10^5 cells/mL. • BAC1.2F5: resuspend in growth media +36 ng/mL murine M-CSF to 1.4×10^5 cells/mL. • MV-4-11: resuspend in growth media +10% FBS to 5×10^5 cells/mL. […] On day 2, compound at a maximum concentration of 5 mM is serially diluted 1:3 for a total of 8 point titration with DMSO as a control. A 1 μL aliquot of each dilution point is added to 249 μL growth media and 50 μL is added to a well containing cells, providing 10 μM compound for the maximum concentration point. The cells are incubated for 3 days at 37° C. in 5% CO2. […] ATPlite is added to each well as follows: • BCR-FMS/BaF3 and BCR-KIT/BaF3: 25 μL per well. • M-NFS-60: 25 μL per well. • M-07c: 40 μL per well. • BAC1.2F5: 50 μL per well. • MV-4-11: 40 μL per well. The cells are incubated at room temperature for 10 minutes, then luminescence is read on Safire reader. The measured luminescence correlates directly with cell number, such that the reading as a function of compound concentration is used to determine the IC50 value.

The target of data set [3] is BCR-KIT/BaF3 cells (Homo sapiens, UniProt P10721). Description: BCR-KIT/BaF3 cell proliferation assay (ATPlite). Type of data set: cell-based. Conditions: read-out: BCR/BaF3 (IC50 μM) Kit. As for the experimental part:
Compounds are assessed in a variety of cell based assays. For example BCR-FMS/BaF3, BCR-KIT/BaF3, M-NFS-60, M-07e, and BAC1.2F5 cell proliferation assays are used to assess inhibitory activity of Fms or Kit and MV-4-11 cell proliferation assay is used to assess inhibitory activity in Flt-3. Reagent and assay conditions are as follows: • BCR-FMS/BaF3 and BCR-KIT/BaF3 cells: • Maintained in RPMI containing 10% FBS, 1% PenStrep, 1% NEAA, and 1% L-Glutamine, supplemented with 1 mg/mL G418 and 5% WEHI-CM (or recombinant murine IL-3). • Confluent cells are split 1:50 to 1:100 every 3-4 days. • M-NFS-60 cells (ATCC #CRL-1838): • Maintained in RPMI containing 10% FBS, 1% Hepes, 1% NaPyruvate, and 0.45% Glucose, supplemented with 62 ng/mL murine M-CSF. • Confluent cells are split 1:20 every 3-4 days. • M-07e cells (DSMZ #ACC 104): • Maintained in IMDM containing 10% FBS, supplemented with either 200 ng/mL human SCF or […] SCF (R&D Systems 255-SC). • Confluent cells are split 1:5 to 1:10 every 3-4 days. • BAC1.2F5 cells: • Maintained in Alpha-MEM containing 10% Newborn Calf Serum (Invitrogen #26010-074) supplemented with 36 ng/mL murine M-CSF. • Confluent cells are split 1:4 every 3-4 days. • MV-4-11 cells: • Maintained in Iscove's Modified Dulbecco's Medium containing 10% FBS. • Confluent cells are split 1:4 every 3-4 days. On day 1, cells are counted, then centrifuged in a conical tube for 5 minutes at 1000 rpm. The supernatant is removed and cells are re-suspended as follows: • BCR-FMS/BaF3 and BCR-KIT/BaF3: resuspend in growth media+1 mg/mL G418 (without WEHI/IL-3) to 2×10^5 cells/mL. • M-NFS-60: resuspend in growth media +62 ng/mL murine M-CSF to 5×10^5 cells/mL. • M-07e: resuspend in growth media +200 ng/mL human SCF to 5×10^5 cells/mL. • BAC1.2F5: resuspend in growth media +36 ng/mL murine M-CSF to 1.4×10^5 cells/mL. • MV-4-11: resuspend in growth media +10% FBS to 5×10^5 cells/mL. The cells are plated (50 μL) in each well of a 96-well dish (Corning 3610) and incubated at 37° C. in 5% CO2 overnight, cells plated to a final concentration of cells as follows: • BCR-FMS/BaF3 and BCR-KIT/BaF3: 10,000 cells per well. • M-NFS-60: 25,000 cells per well. • M-07e: 25,000 cells per well. • BAC1.2F5: 7,000 cells per well. • MV-4-11: 25,000 cells per well. On day 2, compound at a maximum concentration of 5 mM is serially diluted 1:3 for a total of 8 point titration with DMSO as a control. A 1 μL aliquot of each dilution point is added to 249 μL growth media and 50 μL is added to a well containing cells, providing 10 μM compound for the maximum concentration point. The cells are incubated for 3 days at 37° C. in 5% CO2. On day 5, ATPlite 1 step Luminescence Assay System (Perkin Elmer #6016739) is brought to room temperature along with the cell cultures. ATPlite is added to each well as follows: • BCR-FMS/BaF3 and BCR-KIT/BaF3: 25 μL per well. • M-NFS-60: 25 μL per well. • M-07c: 40 μL per well. • BAC1.2F5: 50 μL per well. • MV-4-11: 40 μL per well. The cells are incubated at room temperature for 10 minutes, then luminescence is read on Safire reader. The measured luminescence correlates directly with cell number, such that the reading as a function of compound concentration is used to determine the IC50 value.

The nature of data set [4]: Turbidity assay of relative solubility in aqueous buffers. Type of data set: physicochemical. The settings on record: pH 4.5 (SIF). Here is the method: As an indication of relative solubility, the turbidity of compounds in aqueous solutions is assessed. To assess possible compound properties in different physiological compartments, such as stomach, intestine, and blood, a series of aqueous buffers with varying pH is used. Thus each compound is diluted into four different physiologically relevant buffers and solution turbidity is measured by spectrophotometry.
Compounds are dissolved at a concentration of 25 mM in dimethyl sulfoxide, then serially diluted 1:1 into a 96 well plate, diluting 10 times in pure dimethyl sulfoxide, with the final well of each row a dimethyl sulfoxide blank. In an assay plate, 99 μL of appropriate buffer is added to each well, and 1 μL of each sample dilution is added to the buffer, achieving a range of final total concentrations in aqueous solutions having different pH. The buffers used are Simulated Gastric Fluid (SGF-pH 1.5) 0.5M NaCl, pH 1.5; Simulated Intestinal fluid (SIF-pH 4.5 and pH 6.8) 0.05M NaH2PO4, pH 4.5 and 6.8; and Hepes Buffer (HEPES-pH 7.4) 10 mM HEPES, 150 mM NaCl, pH 7.4. Control compounds pyrene, estriol and propranolol HCl are also assessed. Plates are spun and then mixed for 1 minute, and the absorbance is read using a Tecan Safire II to read wavelengths in the visible range (490, 535, and 650 nm) at four locations per well, reflecting the degree of turbidity present. The average optical density for each wavelength in each well is graphed vs. compound concentration, and the concentration at which the curve crosses a threshold O.D. of 0.01 for each wavelength is reported as the endpoint turbidity assay result. The average of the three wavelengths is used to compare turbidity of compounds. Compounds are considered to have low solubility if the threshold concentration is <31.3 μM, moderate solubility if the threshold concentration is 31.3 μM to 250 μM, and high solubility if the threshold concentration is >250 μM.

Two compounds from patent publication US9096593B2, “Compounds and methods for kinase modulation, and indications therefor” (Plexxikon Inc., priority 2009, dated 2015) can be followed below.

BCR-FMS/BaF3 cells, sequence (P07333 20-972 limits assumed, change not shown): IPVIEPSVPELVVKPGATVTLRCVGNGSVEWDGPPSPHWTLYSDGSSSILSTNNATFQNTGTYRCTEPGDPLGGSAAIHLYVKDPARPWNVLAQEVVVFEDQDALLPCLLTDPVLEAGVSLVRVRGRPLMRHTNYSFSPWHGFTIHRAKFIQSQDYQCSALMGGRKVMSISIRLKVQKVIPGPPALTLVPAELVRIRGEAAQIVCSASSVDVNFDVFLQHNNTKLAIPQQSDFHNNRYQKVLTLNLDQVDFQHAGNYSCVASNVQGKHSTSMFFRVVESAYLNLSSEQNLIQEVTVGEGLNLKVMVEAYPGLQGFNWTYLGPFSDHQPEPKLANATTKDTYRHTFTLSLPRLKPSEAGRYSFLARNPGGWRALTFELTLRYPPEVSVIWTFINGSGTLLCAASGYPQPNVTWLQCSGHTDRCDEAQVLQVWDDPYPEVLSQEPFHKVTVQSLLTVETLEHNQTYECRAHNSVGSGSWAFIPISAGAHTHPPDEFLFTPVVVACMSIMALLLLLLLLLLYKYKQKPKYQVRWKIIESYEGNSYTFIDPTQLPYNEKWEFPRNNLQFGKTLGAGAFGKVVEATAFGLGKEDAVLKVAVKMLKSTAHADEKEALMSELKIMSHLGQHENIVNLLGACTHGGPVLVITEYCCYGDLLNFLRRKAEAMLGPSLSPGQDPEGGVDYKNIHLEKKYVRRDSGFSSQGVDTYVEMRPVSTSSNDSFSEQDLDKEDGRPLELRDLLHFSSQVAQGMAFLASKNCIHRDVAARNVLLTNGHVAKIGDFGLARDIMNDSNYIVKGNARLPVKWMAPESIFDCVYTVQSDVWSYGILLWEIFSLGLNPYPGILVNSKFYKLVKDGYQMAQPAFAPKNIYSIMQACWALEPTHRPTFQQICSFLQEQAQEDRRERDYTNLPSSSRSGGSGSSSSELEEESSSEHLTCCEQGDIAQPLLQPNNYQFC
BCR-KIT/BaF3 cells, sequence (P10721 26-976 limits assumed, change not shown): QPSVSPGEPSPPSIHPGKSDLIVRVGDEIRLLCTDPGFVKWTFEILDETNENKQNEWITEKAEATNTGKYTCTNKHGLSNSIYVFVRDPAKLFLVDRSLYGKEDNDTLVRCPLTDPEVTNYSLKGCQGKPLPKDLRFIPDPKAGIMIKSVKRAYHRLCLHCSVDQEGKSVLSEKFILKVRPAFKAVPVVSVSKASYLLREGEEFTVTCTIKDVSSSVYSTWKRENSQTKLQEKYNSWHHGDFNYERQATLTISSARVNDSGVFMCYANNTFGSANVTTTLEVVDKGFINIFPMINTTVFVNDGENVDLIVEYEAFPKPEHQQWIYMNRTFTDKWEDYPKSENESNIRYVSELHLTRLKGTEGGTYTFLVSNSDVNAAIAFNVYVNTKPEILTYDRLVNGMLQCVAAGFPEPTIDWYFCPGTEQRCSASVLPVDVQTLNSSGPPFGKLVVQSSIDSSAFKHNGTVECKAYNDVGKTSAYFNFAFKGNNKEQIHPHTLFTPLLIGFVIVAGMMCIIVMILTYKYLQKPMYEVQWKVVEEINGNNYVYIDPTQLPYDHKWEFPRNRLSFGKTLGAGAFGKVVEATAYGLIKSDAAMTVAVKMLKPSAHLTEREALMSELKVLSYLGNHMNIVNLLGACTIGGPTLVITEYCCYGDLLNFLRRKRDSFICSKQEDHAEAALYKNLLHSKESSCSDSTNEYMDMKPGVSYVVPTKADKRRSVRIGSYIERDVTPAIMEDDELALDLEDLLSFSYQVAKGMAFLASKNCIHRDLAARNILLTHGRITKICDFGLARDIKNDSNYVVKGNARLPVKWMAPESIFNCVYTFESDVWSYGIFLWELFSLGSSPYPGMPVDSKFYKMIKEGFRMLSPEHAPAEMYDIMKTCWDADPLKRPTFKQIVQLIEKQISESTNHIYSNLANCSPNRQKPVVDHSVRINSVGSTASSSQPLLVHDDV
Fms kinase, sequence (P07333 20-972): as the sequence (P07333 20-972 limits assumed, change not shown) above

Turning to `COc1ccc(CNc2ccc(Cc3c[nH]c4ncc(Cl)cc34)cn2)c(OC)n1` [Compound P-1496, [5-(5-Chloro-1H-pyrrolo[2,3-b]pyridin-3-ylmethyl)-pyridin-2-yl]-(2,6-dimethoxy-pyridin-3-ylmethyl)-amine], the IC50 was < 0.1 µM in data set [1]; < 0.1 µM in data set [2] (BCR-FMS/BaF3 cells, read-out: BCR/BaF3 (IC50 μM) Fms); > 0.1 µM in data set [3]. Also, the “BCR/BaF3 selectivity (Kit IC50/Fms IC50)” value in data set [2] (Kit IC50/Fms IC50, BCR-KIT/BaF3 vs BCR-FMS/BaF3 cells) is >20.
Regarding `COc1ncc(F)cc1CNc1ccc(Cc2c[nH]c3ncc(C#N)cc23)c(F)n1` [Compound P-2193, 3-{2-Fluoro-6-[(5-fluoro-2-methoxy-pyridin-3-ylmethyl)-amino]-pyridin-3-ylmethyl}-1H-pyrrolo[2,3-b]pyridine-5-carbonitrile], in data set [4], the “turbidity threshold (L, M, H) 4.5” value is “L (low solubility if the threshold concentration is <31.3 μM)”.
